What was measured:
[1] = Human metabolic stability half-life assay; type: in vitro ADME; conditions: human liver microsomes, NADPH, 0.5 μM compound, 45-minute time course; for half-life at 0.5 µM: pH 7.4, read-out: HLM (t1/2, min)
Text: Metabolic Stability Half-Life Panel

[2] = tested on: human Notch 1; experiment: Notch-CBF1 Transactivation Assay (Notch 1); type: cell-based; conditions: read-out: Notch 1 (IC50); HeLa cells transfected with truncated Notch 1 and CBF1 luciferase reporter; 18 hours; average of N experiments
Text: (§1) Notch-CBF1 Transactivation Assay
(§2) The Notch-CBF1 (C-promoter binding factor I) cell based transactivation assay is based on the ability of the released Notch intracellular domain fragments (NICDs) to function as transcription factors in conjunction with CBF1 and other nuclear factors. Luciferase assays were used to measure the antagonism of Notch-CBF1 transcriptional activity. HeLa cervical cancer cells are transiently co-transfected with pCDNA3.1/Hygro plasmids containing truncated Notch 1, Notch 2, Notch 3, or Notch 4 receptors and a PGL3 luciferase reporter vector containing 4 copies of CBF1 binding site. The cells were then tested for Notch-CBF1 activity in the absence or presence of test compounds. HeLa cells, maintained in DMEM (high glucose with HEPES), 1× glutamine/penicillin/streptomycin and 10% Fetal Bovine serum, were transiently transfected in a T175 Flask (4.5×10^6 cells/flask) using the Monster Transfection Kit (Minis #MIR2906) according to manufacturers specifications. Table 5 denotes respective DNA quantity for the transfections.
(§3) Assay media (5 μL) containing test compounds in final concentrations ranging from 5 μM to 8.4×10^−5 μM (3 fold serial dilutions) were added to the cells and the cell plates were then incubated for 18 hours at 37° C. and 5% CO2. Control wells contained DMSO vehicle (total counts) or 0.5 μM of an in-house small molecule inhibitor (background counts). Duplicates were used for each sample. Luciferase activity was measured after a 20-minute incubation with 50 μl STEADY-GLO® luciferase reagents according to manufacturer's specifications (Promega, Cat. #E2550) and analyzed by Envision plate reader (PerkinElmer, Boston, Mass.).
(§4) The antagonist effect of compounds was expressed as 100×[1−(average sample−average background)/(average total−average background)] where sample is the luciferase activity in the presence of test compound, background is equal to the luciferase activity in the presence of the small molecule inhibitor control and the total is signal induced in DMSO wells.

[3] = tested on: human Notch 3; experiment: Notch-CBF1 Transactivation Assay (Notch 3); type: cell-based; conditions: read-out: Notch 3 (IC50); HeLa cells transfected with truncated Notch 3 and CBF1 luciferase reporter; 18 hours; average of N experiments
Text: as §1, §2, §3, §4

| Structure (SMILES) | HLM (t1/2, min) [1] [min] | IC50 [2] [nM] | IC50 [3] [nM] | half-life at 0.5 µM [1] [min] |
| --- | --- | --- | --- | --- |
| CCC[C@H](C(N)=O)[C@@H](CC(C)C)C(=O)N[C@H]1N=C(c2ccccc2)c2ccccc2N(C)C1=O [Comparative Compound 26, reference compound] | 8 |  |  |  |
| C=CC[C@H](C(N)=O)[C@@H](CC(C)C)C(=O)N[C@H]1N=C(c2ccccc2)c2cc(Cl)ccc2N(C)C1=O [Comparative Compound 27, reference compound] | 6 |  |  |  |
| CCCC[C@H](C(N)=O)[C@@H](CC(C)C)C(=O)N[C@H]1N=C(c2ccc(Cl)cc2)c2ccccc2N(C)C1=O [Comparative Compound 28, reference compound] | 6 |  |  |  |
| C=CC[C@H](C(N)=O)[C@@H](CC(C)C)C(=O)N[C@H]1N=C(c2ccccc2)c2ccccc2N(CCC)C1=O [Comparative Compound 29, reference compound] | 3 |  |  |  |
| COc1cccc2c1NC(=O)[C@@H](NC(=O)[C@H](CCC(F)(F)F)[C@@H](C(N)=O)C1CCC(F)(F)CC1)N=C2c1ccccc1 [Example 2, (2R,3S)-3-(4,4-Difluorocyclohexyl)-N-((3S)-9-methoxy-2-oxo-5-phenyl-2,3-dihydro-1H-1,4-benzodiazepin-3-yl)-2-(3,3,3-trifluoropropyl)succinamide] |  | 7 | 6 | 43 |
| NC(=O)[C@@H](C1CCC(F)(F)CC1)[C@@H](CCC(F)(F)F)C(=O)N[C@H]1N=C(c2cccc(F)c2)c2cccc(OC3CC3)c2NC1=O [Example 3, (2R,3S)—N-((3S)-9-(Cyclopropyloxy)-5-(3-fluorophenyl)-2-oxo-2,3-dihydro-1H-1,4-benzodiazepin-3-yl)-3-(4,4-difluorocyclohexyl)-2-(3,3,3-trifluoropropyl)succinamide] |  | 4.2 | 8.9 | 80 |
| NC(=O)[C@@H](C1CCC(C(F)(F)F)CC1)[C@@H](CCC(F)(F)F)C(=O)N[C@H]1N=C(c2ccccc2)c2cccc(Cl)c2NC1=O (stereo partly drawn) [Example 4, (2R,3S)—N-((3S)-9-Chloro-2-oxo-5-phenyl-2,3-dihydro-1H-1,4-benzodiazepin-3-yl)-3-(4-(trifluoromethyl)cyclohexyl)-2-(3,3,3-trifluoropropyl)succinamide] |  | 11.9 | 21.2 | > 120 |
| NC(=O)[C@@H](C1CCC(F)(F)CC1)[C@@H](CCC(F)(F)F)C(=O)N[C@H]1N=C(c2ccccc2)c2cccc(Cl)c2NC1=O [Example 5, (2R,3S)—N-((3S)-9-Chloro-2-oxo-5-phenyl-2,3-dihydro-1H-1,4-benzodiazepin-3-yl)-3-(4,4-difluorocyclohexyl)-2-(3,3,3-trifluoropropyl)succinamide] |  | 4.4 | 7.3 | 72 |
| NC(=O)[C@@H](C1CC(F)(F)C1)[C@@H](CCC(F)(F)F)C(=O)N[C@H]1N=C(c2ccccc2)c2ccccc2NC1=O [Example 6] |  | 14 | 18.9 | > 120 |
| NC(=O)[C@@H](CC1CC(F)(F)C1)[C@@H](CCC(F)(F)F)C(=O)N[C@H]1N=C(c2ccccc2)c2cccc(OC3CC3)c2NC1=O [Example 7, (2R,3S)—N-((3S)-9-(Cyclopropyloxy)-2-oxo-5-phenyl-2,3-dihydro-1H-1,4-benzodiazepin-3-yl)-3-((3,3-difluorocyclobutyl)methyl)-2-(3,3,3-trifluoropropyl)succinamide] |  | 3.9 | 2.1 | > 120 |
| COc1cccc2c1NC(=O)[C@@H](NC(=O)[C@H](CCC(F)(F)F)[C@H](CC1CC(F)(F)C1)C(N)=O)N=C2c1ccccc1 [Example 8, (2R,3S)-3-((3,3-Difluorocyclobutyl)methyl)-N-((3S)-9-methoxy-2-oxo-5-phenyl-2,3-dihydro-1H-1,4-benzodiazepin-3-yl)-2-(3,3,3-trifluoropropyl)succinamide] |  | 2.9 | 4 | 58 |
| Cc1cccc2c1NC(=O)[C@@H](NC(=O)[C@H](CCC(F)(F)F)[C@H](CC1CC(F)(F)C1)C(N)=O)N=C2c1cccc(F)c1 [Example 9, (2R,3S)-3-((3,3-Difluorocyclobutyl)methyl)-N-((3S)-5-(3-fluorophenyl)-9-methyl-2-oxo-2,3-dihydro-1H-1,4-benzodiazepin-3-yl)-2-(3,3,3-trifluoropropyl)succinamide] |  | 3.5 | 3.2 | 91 |
| Cc1cccc(C2=N[C@H](NC(=O)[C@H](CCC(F)(F)F)[C@H](CC3CC(F)(F)C3)C(N)=O)C(=O)Nc3c(Cl)cccc32)c1 [Example 10, (2R,3S)—N-((3S)-9-Chloro-5-(3-methylphenyl)-2-oxo-2,3-dihydro-1H-1,4-benzodiazepin-3-yl)-3-((3,3-difluorocyclobutyl)methyl)-2-(3,3,3-trifluoropropyl)succinamide] |  | 1.7 | 4.4 | 69 |
| Cc1cccc(C2=N[C@H](NC(=O)[C@H](CCC(F)(F)F)[C@H](CC3CC(F)(F)C3)C(N)=O)C(=O)Nc3c(F)cccc32)c1 [Example 11, (2R,3S)-3-((3,3-Difluorocyclobutyl)methyl)-N-((3S)-9-fluoro-5-(3-methylphenyl)-2-oxo-2,3-dihydro-1H-1,4-benzodiazepin-3-yl)-2-(3,3,3-trifluoropropyl)succinamide] |  | 2.1 | 2.2 | 46 |
| NC(=O)[C@@H](CC1CC(F)(F)C1)[C@@H](CCC(F)(F)F)C(=O)N[C@H]1N=C(c2ccccc2)c2cccc(C3CC3)c2NC1=O [Example 12, (2R,3S)—N-((3S)-9-Cyclopropyl-2-oxo-5-phenyl-2,3-dihydro-1H-1,4-benzodiazepin-3-yl)-3-((3,3-difluorocyclobutyl)methyl)-2-(3,3,3-trifluoropropyl)succinamide] |  | 5.6 | 4.3 | 41 |
| NC(=O)[C@@H](CC1CC(F)(F)C1)[C@@H](CCC(F)(F)F)C(=O)N[C@H]1N=C(c2ccccc2)c2cccc(Cl)c2NC1=O [Example 13, (2R,3S)—N-((3S)-9-Chloro-2-oxo-5-phenyl-2,3-dihydro-1H-1,4-benzodiazepin-3-yl)-3-((3,3-difluorocyclobutyl)methyl)-2-(3,3,3-trifluoropropyl)succinamide] |  | 2.8 | 2.4 | > 120 |
| NC(=O)[C@@H](CC1CC(F)(F)C1)[C@@H](CCC(F)(F)F)C(=O)N[C@H]1N=C(c2ccccc2)c2cccc(F)c2NC1=O [Example 14, (2R,3S)-3-((3,3-Difluorocyclobutyl)methyl)-N-((3S)-9-fluoro-2-oxo-5-phenyl-2,3-dihydro-1H-1,4-benzodiazepin-3-yl)-2-(3,3,3-trifluoropropyl)succinamide] |  | 4.5 | 1.4 | > 120 |
| NC(=O)[C@@H](CC1CC(F)(F)C1)[C@@H](CCC(F)(F)F)C(=O)N[C@H]1N=C(c2ccccc2)c2ccccc2NC1=O [Example 15, (2R,3S)-3-((3,3-Difluorocyclobutyl)methyl)-N-((3S)-2-oxo-5-phenyl-2,3-dihydro-1H-1,4-benzodiazepin-3-yl)-2-(3,3,3-trifluoropropyl)succinamide] |  | 4.4 | 3.8 | 35 |
| COc1cccc2c1NC(=O)[C@@H](NC(=O)[C@H](CCC(F)(F)F)[C@H](CCCF)C(N)=O)N=C2c1ccccc1 [Example 16, (2R,3S)-3-(3-Fluoropropyl)-N-((3S)-9-methoxy-2-oxo-5-phenyl-2,3-dihydro-1H-1,4-benzodiazepin-3-yl)-2-(3,3,3-trifluoropropyl)succinamide] |  | 7 | 15.4 | 88 |
| COc1ccc2c(c1)NC(=O)[C@@H](NC(=O)[C@H](CCC(F)(F)F)[C@H](CCCF)C(N)=O)N=C2c1ccccc1 [Example 17, (2R,3S)-3-(3-Fluoropropyl)-N-((3S)-8-methoxy-2-oxo-5-phenyl-2,3-dihydro-1H-1,4-benzodiazepin-3-yl)-2-(3,3,3-trifluoropropyl)succinamide] |  | 5.8 | 11 | > 120 |
| CC(F)(F)C[C@H](C(N)=O)[C@@H](CCC(F)(F)F)C(=O)N[C@H]1N=C(c2ccccc2)c2ccccc2NC1=O [Example 18, (2R,3S)-3-(2,2-Difluoropropyl)-N-((3S)-2-oxo-5-phenyl-2,3-dihydro-1H-1,4-benzodiazepin-3-yl)-2-(3,3,3-trifluoropropyl)succinamide] |  | 2.7 | 10.8 | > 120 |

Source: patent publication US9427442B2, “Fluoroalkyl and fluorocycloalkyl 1,4-benzodiazepinone compounds” (BRISTOL-MYERS SQUIBB COMPANY, priority 2012, dated 2016)
